Here are results for 17 compounds from ChEMBL document CHEMBL3585342, “Exploring the isoform selectivity of TGX-221 related pyrido[1,2-a]pyrimidinone-based Class IA PI 3-kinase inhibitors: synthesis, biological evaluation and molecular modelling” (Bioorg Med Chem, 2015).

SMILES strings stand for the structures.

The target of experiment [1] is T1, Phosphatidylinositol 4,5-bisphosphate 3-kinase catalytic subunit delta isoform (Homo sapiens, UniProt O00329).
T1 sequence (O00329 whole entry): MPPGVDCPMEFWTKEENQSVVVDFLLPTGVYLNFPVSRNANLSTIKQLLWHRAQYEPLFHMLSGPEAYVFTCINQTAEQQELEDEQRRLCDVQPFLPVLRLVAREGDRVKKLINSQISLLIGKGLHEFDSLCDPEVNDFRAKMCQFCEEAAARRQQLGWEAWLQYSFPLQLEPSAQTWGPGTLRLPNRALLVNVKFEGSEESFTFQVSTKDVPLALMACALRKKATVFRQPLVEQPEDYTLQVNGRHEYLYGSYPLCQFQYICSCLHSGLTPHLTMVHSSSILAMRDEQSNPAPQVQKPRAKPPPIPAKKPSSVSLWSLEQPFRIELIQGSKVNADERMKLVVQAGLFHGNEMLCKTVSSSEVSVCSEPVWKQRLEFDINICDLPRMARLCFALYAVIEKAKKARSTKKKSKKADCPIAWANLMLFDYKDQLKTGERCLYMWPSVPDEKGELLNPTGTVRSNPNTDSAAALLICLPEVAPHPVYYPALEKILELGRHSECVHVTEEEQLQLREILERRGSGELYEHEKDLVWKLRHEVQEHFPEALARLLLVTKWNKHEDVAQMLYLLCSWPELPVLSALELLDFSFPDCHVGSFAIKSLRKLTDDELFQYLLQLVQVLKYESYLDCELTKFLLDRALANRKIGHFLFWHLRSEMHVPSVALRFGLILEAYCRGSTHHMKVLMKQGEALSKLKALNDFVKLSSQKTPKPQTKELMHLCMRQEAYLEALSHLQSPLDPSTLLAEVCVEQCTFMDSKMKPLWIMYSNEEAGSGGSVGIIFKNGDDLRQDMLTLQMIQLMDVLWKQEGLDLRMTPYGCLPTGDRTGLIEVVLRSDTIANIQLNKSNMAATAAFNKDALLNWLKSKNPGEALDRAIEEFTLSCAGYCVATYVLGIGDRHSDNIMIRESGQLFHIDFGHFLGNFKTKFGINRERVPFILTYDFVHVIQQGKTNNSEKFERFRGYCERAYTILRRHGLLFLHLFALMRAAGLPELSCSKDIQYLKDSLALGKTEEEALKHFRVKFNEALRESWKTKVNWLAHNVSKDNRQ
Type of experiment: cell-based, Sf9.
Description: Inhibition of N-terminal His-tagged human p110delta expressed in Sf9 cells co-expressing p85alpha regulatory subunit using phosphatidylinositol substrate and [gamma-33P]-ATP by basic thin layer chromatography technique based lipid kinase assay

The nature of experiment [2]: Inhibition of cell proliferation of human NZOV9 cells containing wild-type p53 protein and p110alpha Y1021C mutant incubated for 5 days by [3H]thymidine incorporation assay. Type of experiment: functional, cell-based.
Experiment [3] concerns the target Phosphatidylinositol 4,5-bisphosphate 3-kinase catalytic subunit beta isoform (Homo sapiens, UniProt P42338). The experiment is classed as cell-based, Sf9.
Description: Inhibition of N-terminal His-tagged human p110beta expressed in Sf9 cells co-expressing p85alpha regulatory subunit using phosphatidylinositol substrate and [gamma-33P]-ATP by basic thin layer chromatography technique based lipid kinase assay
Experiment [4] in a line: Inhibition of cell proliferation of human NZB5 cells containing wild-type p110alpha gene incubated for 5 days by [3H]thymidine incorporation assay. Type of experiment: functional, cell-based. A general note: Incorporation of labelled thymidine or its analogues reports DNA synthesis.
The target in experiment [5] is Phosphatidylinositol 4,5-bisphosphate 3-kinase catalytic subunit alpha isoform (Homo sapiens, UniProt P42336). Type of experiment: cell-based, Sf9.
Chain of Phosphatidylinositol 4,5-bisphosphate 3-kinase catalytic subunit alpha isoform (P42336 whole entry, canonical isoform): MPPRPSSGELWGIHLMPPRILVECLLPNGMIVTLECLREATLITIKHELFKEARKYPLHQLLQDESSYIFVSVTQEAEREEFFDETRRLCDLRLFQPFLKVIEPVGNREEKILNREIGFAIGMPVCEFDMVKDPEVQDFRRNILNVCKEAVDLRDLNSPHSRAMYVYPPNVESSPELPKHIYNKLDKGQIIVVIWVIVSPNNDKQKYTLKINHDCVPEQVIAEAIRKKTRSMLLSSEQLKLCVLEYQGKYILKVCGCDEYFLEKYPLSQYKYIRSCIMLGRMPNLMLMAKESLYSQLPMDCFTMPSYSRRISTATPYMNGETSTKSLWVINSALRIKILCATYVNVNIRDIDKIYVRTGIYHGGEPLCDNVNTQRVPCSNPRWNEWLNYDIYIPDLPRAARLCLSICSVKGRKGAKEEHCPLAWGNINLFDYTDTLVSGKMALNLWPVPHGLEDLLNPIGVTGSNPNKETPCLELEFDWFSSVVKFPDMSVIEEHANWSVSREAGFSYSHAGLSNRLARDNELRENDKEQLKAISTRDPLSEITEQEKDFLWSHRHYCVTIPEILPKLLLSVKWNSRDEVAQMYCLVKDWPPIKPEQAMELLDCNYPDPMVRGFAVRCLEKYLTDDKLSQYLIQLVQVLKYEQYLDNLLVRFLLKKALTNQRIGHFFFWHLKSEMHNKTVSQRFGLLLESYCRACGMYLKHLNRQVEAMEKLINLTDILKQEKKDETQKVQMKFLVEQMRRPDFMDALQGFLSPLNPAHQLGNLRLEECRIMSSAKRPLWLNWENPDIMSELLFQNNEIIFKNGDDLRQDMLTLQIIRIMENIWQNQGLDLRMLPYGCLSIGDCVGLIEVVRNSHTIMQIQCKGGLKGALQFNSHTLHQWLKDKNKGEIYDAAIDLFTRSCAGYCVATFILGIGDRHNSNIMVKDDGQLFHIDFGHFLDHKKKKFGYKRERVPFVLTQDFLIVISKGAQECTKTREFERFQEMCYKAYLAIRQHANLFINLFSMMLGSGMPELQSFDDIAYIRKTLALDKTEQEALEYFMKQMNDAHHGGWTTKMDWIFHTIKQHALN
Description: Inhibition of N-terminal His-tagged human p110alpha expressed in Sf9 cells co-expressing p85alpha regulatory subunit using phosphatidylinositol substrate and [gamma-33P]-ATP by basic thin layer chromatography technique based lipid kinase assay

Chain of Phosphatidylinositol 4,5-bisphosphate 3-kinase catalytic subunit beta isoform (P42338 whole entry, canonical isoform): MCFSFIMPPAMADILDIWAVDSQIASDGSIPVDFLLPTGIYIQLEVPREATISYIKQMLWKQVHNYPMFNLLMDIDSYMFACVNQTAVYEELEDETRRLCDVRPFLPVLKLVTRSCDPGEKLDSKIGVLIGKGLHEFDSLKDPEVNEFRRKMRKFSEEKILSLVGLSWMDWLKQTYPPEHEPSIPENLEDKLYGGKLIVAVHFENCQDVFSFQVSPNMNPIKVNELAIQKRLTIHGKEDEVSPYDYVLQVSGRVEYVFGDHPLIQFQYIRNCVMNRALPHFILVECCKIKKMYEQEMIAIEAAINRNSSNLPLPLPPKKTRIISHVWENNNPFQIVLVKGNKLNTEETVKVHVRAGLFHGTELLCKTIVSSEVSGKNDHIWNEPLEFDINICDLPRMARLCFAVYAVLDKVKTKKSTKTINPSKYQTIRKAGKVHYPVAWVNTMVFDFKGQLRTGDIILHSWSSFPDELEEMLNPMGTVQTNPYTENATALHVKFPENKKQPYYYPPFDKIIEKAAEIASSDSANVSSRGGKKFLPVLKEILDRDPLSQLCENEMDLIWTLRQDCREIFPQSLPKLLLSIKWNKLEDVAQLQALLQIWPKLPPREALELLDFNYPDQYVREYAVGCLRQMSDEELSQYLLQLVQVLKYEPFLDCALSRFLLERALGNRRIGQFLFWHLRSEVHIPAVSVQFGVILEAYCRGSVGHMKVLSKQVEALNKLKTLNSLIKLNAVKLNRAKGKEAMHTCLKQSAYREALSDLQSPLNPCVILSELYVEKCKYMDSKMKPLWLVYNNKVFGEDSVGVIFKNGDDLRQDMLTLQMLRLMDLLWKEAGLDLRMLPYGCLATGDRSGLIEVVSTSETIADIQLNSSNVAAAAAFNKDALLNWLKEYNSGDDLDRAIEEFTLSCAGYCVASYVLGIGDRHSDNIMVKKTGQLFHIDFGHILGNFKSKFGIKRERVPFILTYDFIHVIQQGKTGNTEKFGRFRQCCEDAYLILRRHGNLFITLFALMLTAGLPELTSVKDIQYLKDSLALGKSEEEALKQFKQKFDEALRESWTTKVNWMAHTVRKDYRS

Regarding `Cc1ccc(C(=O)Nc2cccn3c(=O)cc(N4CCOCC4)nc23)cc1`, the 50% inhibitory concentration (IC50) in experiment [1] turned out to be 30 nM; in experiment [2], 800 nM; in experiment [3], 1900 nM; in experiment [4], 900 nM; in experiment [5] it was 1360 nM.
For `Cc1cc(NCc2ccncc2)c2nc(N3CCOCC3)cc(=O)n2c1`, in that order: 710 nM, 14000 nM, 4200 nM, 14000 nM and 4900 nM.
With `O=c1cc(N2CCOCC2)nc2c(CS(=O)(=O)c3ccccc3)cccn12`, the IC50 in experiment [1] is more than 10000 nM; in experiment [2], more than 20000 nM; in experiment [3], 4800 nM; in experiment [4], more than 20000 nM; in experiment [5] it was more than 10000 nM.
As to `Cc1cc(N[C@H](C)c2ccccc2)c2nc(N3CCOCC3)cc(=O)n2c1`, the concentration for half-maximal inhibition (IC50) in experiment [1] was 800 nM; in experiment [2], 800 nM; in experiment [3] it was 2300 nM; in experiment [4], 700 nM; in experiment [5], 2700 nM.
Regarding `Cc1cccc(NC(=O)c2cccn3c(=O)cc(N4CCOCC4)nc23)c1`, the IC50 in experiment [1] was 300 nM; in experiment [2] it was 2800 nM; in experiment [3] it was 3900 nM; in experiment [4] it was 8000 nM; in experiment [5], 850 nM.
On to `Cc1cc(NCc2cccnc2)c2nc(N3CCOCC3)cc(=O)n2c1`, for which the concentration for half-maximal inhibition (IC50) in experiment [1] was 450 nM; in experiment [2], 7900 nM; in experiment [3] it was 590 nM; in experiment [4], 8200 nM; in experiment [5] it was more than 10000 nM.
In the case of `O=c1cc(N2CCOCC2)nc2c(CSc3ccccc3)cccn12`, the 50% inhibitory concentration (IC50) was found to be 570 nM in experiment [1]; 6300 nM in experiment [2]; 570 nM in experiment [3]; 7800 nM in experiment [4]; 1500 nM in experiment [5].
`Cc1ccc(NCc2cccn3c(=O)cc(N4CCOCC4)nc23)cc1`: the half-inhibitory concentration (IC50) is 710 nM in experiment [1]; 5800 nM in experiment [2]; 4600 nM in experiment [3]; 5500 nM in experiment [4]; 6800 nM in experiment [5].
For `Cc1cccc(CNc2cc(C)cn3c(=O)cc(N4CCOCC4)nc23)c1`, in that order: 200 nM, 1300 nM, 130 nM, 400 nM and 400 nM.
`Cc1cccc(C(=O)Nc2cccn3c(=O)cc(N4CCOCC4)nc23)c1`: the IC50 in experiment [1] amounted to 470 nM; in experiment [2], 800 nM; in experiment [3], 1800 nM; in experiment [4] it was 6000 nM; in experiment [5], 570 nM.
Consider `Cc1cccc(NCc2cccn3c(=O)cc(N4CCOCC4)nc23)c1`, for which the concentration for half-maximal inhibition (IC50) in experiment [1] is 810 nM; in experiment [3], 240 nM; in experiment [4], 3000 nM; in experiment [5], 1100 nM.
With `Cc1ccccc1NCc1cccn2c(=O)cc(N3CCOCC3)nc12`, the IC50 in experiment [1] is 470 nM; in experiment [3], 20 nM; in experiment [5], 1800 nM.
With `Cc1cc(C(C)Nc2ccccc2)c2nc(N3CCOCC3)cc(=O)n2c1` (racemic), the IC50 in experiment [1] came to 140 nM; in experiment [2], 1200 nM; in experiment [4] it was 2800 nM; in experiment [5], 1000 nM.
For `O=c1cc(N2CCOCC2)nc2c(CNc3ccccc3)cccn12`, the values for the concentration for half-maximal inhibition (IC50) in experiment [1], in experiment [3] and in experiment [5] were 470 nM, 30 nM and 1100 nM, respectively.
For the compound `Cc1cc(NCc2ccccc2C)c2nc(N3CCOCC3)cc(=O)n2c1`, the IC50 turned out to be 5000 nM in experiment [2], 20 nM in experiment [3] and 1500 nM in experiment [4].
Consider `Cc1cc(C(C)N(C)c2ccccc2)c2nc(N3CCOCC3)cc(=O)n2c1` (racemic), for which the IC50 in experiment [1] turned out to be 220 nM; in experiment [3] it was 20 nM; in experiment [5], 1500 nM.
For the compound `Cc1cc(Nc2ccccc2C)c2nc(N3CCOCC3)cc(=O)n2c1`, the IC50 turned out to be 310 nM in experiment [1], 2200 nM in experiment [2], 1100 nM in experiment [3] and 1500 nM in experiment [5].

Usually IC50 stands for the concentration at which inhibition is half-maximal. A higher IC50 goes with a need for much substance.
